In patent US9265771B2, “Method for treating Lyme disease” (Zoetis Services LLC, priority 2012, dated 2016):

Tests used:
B. burgdorferi [1] = experiment: Study A: SNAP-4Dx ELISA in tick-infected dogs; type: in vivo, beagle dogs; conditions: N=8
Source text: Three outer surface proteins (Osp) on B. burgdorferi are important for diagnosis and prevention, and are expressed by the organism in response to its local environment. […] OspF is another surface protein that is generally observed in late-stage disease. The C in […] refers to a 25-amino acid, C6 peptide in the sixth invariable region of an outer membrane lipoprotein (VIsE). Antibody against C6 is highly accurate as a serologic diagnosis of Lyme disease independent of a subject's (e.g., canine) vaccination status. Further, the generation of C6 antibodies implies an active infection with viable spirochetes. Serological methods for detecting B. burgdorfer/Lyme disease were conducted using the IDEXX qualitative SNAP-4Dx ELISA and the Quantitative C6 (Quant C6 or QC6) diagnostic kits, which are enzyme linked immunosorbent assays against the previously described 25-amino-acid C6 peptide. […]
Twenty-three adult female beagle dogs were used in this study; all were sero-negative for Borrelia, not vaccinated with any Borrelia spp vaccines, and acclimated at the study facility for seven days prior to any study activities. […] Dogs were monitored 21-days post-challenge for pyrexia, and the entire post-challenge period for clinical signs of Lyme disease (lameness, ataxia, anorexia, lymphadenopathy and depression). […]

B. burgdorferi [2] = experiment: Study A: bacterial culture of skin biopsy samples for spirochetes; type: in vivo, beagle dogs
Method: Twenty-three adult female beagle dogs were used in this study; all were sero-negative for Borrelia, not vaccinated with any Borrelia spp vaccines, and acclimated at the study facility for seven days prior to any study activities. The study was conducted under National Research Council guidelines (1996. Dogs were randomized to a non-infected control (n=7 dogs) group, or infected groups (n=8 dogs/region) using ticks from two regions of the USA, Region A (New England (NE), i.e., Rhode Island) and Region B (Midwest (MW), i.e., Wisconsin). Dogs were infected on Day 0 with up to 30 Ixodes scapularis ticks per dog. Tick attachment was monitored daily and after nine days, remaining ticks were harvested and all dogs were treated with two topical applications of an approved acaricide observing a 30-day interval between applications. Dogs were monitored 21-days post-challenge for pyrexia, and the entire post-challenge period for clinical signs of Lyme disease (lameness, ataxia, anorexia, lymphadenopathy and depression).
Blood was collected from each dog weekly to Day 28, then every two-weeks for the remainder of the study (166 days). […] Two skin punch biopsies were collected near tick attachment sites from each dog every 28 days post-challenge for bacterial culture.
On Days 83 and 97, Convenia was administered (8 mg/kg bodyweight; subcutaneous injection). Treated dogs, 8 B. burgdorferi-positive and 4 controls, were compared to untreated cohorts (8 B. burgdorferi-positive, and 3 controls). Comparisons included serology, skin culture results and joint pathology.

B. burgdorferi [3] = experiment: Study B: SNAP-4Dx ELISA in tick-infected dogs; type: in vivo, beagle dogs; conditions: for SNAP-4Dx Positives, Number of Dogs: N = 8/group
Source text: Three outer surface proteins (Osp) on B. burgdorferi are important for diagnosis and prevention, and are expressed by the organism in response to its local environment. […] OspF is another surface protein that is generally observed in late-stage disease. The C in […] refers to a 25-amino acid, C6 peptide in the sixth invariable region of an outer membrane lipoprotein (VIsE). Antibody against C6 is highly accurate as a serologic diagnosis of Lyme disease independent of a subject's (e.g., canine) vaccination status. Further, the generation of C6 antibodies implies an active infection with viable spirochetes. Serological methods for detecting B. burgdorfer/Lyme disease were conducted using the IDEXX qualitative SNAP-4Dx ELISA and the Quantitative C6 (Quant C6 or QC6) diagnostic kits, which are enzyme linked immunosorbent assays against the previously described 25-amino-acid C6 peptide. QC6 ELISA data, units/mL, are useful for guidance in initiating and evaluating response to therapy (See Levy S A, O'Connor T P, Hanscom J L, Shields P, et al. Quantitative measurement of a C6 antibody following antibiotic treatment of Borrelia burgdorferi antibody-positive, nonclinical dogs. Clin Vacc Immunol 2008; 15(1):115-119 and Littman M P, Goldstein R E, Labato M A, et al. ACVIM Small Animal Concensus Statement on Lyme Disease in Dogs: Diagnosis, Treatment and Prevention. J Vet Intern Med 2006; 20: 422-434).
(§1) Thirty-two (18 male and 14 female) beagle dogs were sero-negative for Borrelia burgdorferi, not vaccinated with any Borrelia spp vaccines, and acclimated at the study facility for seven days. The study was conducted under National Research Council guidelines (1996). […] Field-caught Ixodes from the northeast USA were placed on the dogs without containment chambers for 10 days; after ticks fed to repletion, dogs were treated with two applications of an approved topical acaricide with a 30-day interval between applications.
(§2) Forty days post-challenge, and prior to antibiotic treatments, blood was collected from each dog as were two skin biopsy punch samples near tick attachment sites. Blood was collected approximately monthly post-treatment. Skin biopsies were taken near the tick attachment site on Days 48/49, 118, 146, 180, and 315. Serum antibodies to Borrelia were assayed using the IDEXX SNAP-4Dx and QC6 ELISA. In cooperation with Cornell University, serum samples were analyzed using fluorescent-bead-based multiplex assays detecting antibodies against B. burgdorferi outer surface proteins OspA, OspC, and OspF. Data were expressed as median fluorescent intensities (MFI), and shown to be specific and sensitive to provide interpretative guidelines regarding infection. The skin biopsies were collected for a polymerase chain reaction (PCR; FlaB) assay and cultured for spirochete detection. At the end of the study, blood and skin biopsies were collected and synovial tissue from the joints were harvested at necropsy.
On Day 75 and Day 89 Convenia was administered to the eight dogs in T04 (8 mg/kg bodyweight; subcutaneous injection). The other treated groups received their respective regimens daily and orally for 30 days from Days 75 to 104. […] Dogs in T01 served as infected, untreated, controls. Inter-treatment comparisons to evaluate antibiotic efficacy included clinical signs, serology, culture results and pathology.

[4] = system: B. burgdorferi outer surface protein OspF; experiment: Study B: fluorescent-bead-based multiplex assay, antibodies against OspF; type: in vivo, beagle dogs; conditions: for Multiplex Assay OspF: No. Dogs > Positive Threshold (# dogs > 1500): 8 dogs/group
Method: as §1
as §2, with “Data were expressed as median fluorescent intensities (MFI), and shown to be specific and sensitive to provide interpretative guidelines regarding infection.” left out
On Day 75 and Day 89 Convenia was administered to the eight dogs in T04 (8 mg/kg bodyweight; subcutaneous injection). The other treated groups received their respective regimens daily and orally for 30 days from Days 75 to 104. […] Dogs in T01 served as infected, untreated, controls.

[5] = following subcutaneous injection; cited from earlier work
[6] = prior to treatment, of eight dogs

Q: For CO/N=C(\C(=O)N[C@@H]1C(=O)N2C(C(=O)[O-])=C([C@@H]3CCCO3)CS[C@H]12)c1csc(N)n1.[Na+] [Convenia, (6R,7R)-7-[[(2Z)-(2-amino-4-thiazolyl)(methoxyimino)acetyl]-amino]-8-oxo-3-[(2S)-tetrahydro-2-furanyl]-5-thia-1-azabicyclo[4.2.0]oct-2-ene-2-carboxylic acid, monosodium salt], which “Dogs SNAP-4Dx positive for B. burgdorferi” value (B. burgdorferi [1]; prior to administration of Convenia on Day 83) is on record?
A: 100%

Q: What about the “Number of dogs remaining SNAP-4Dx positive” value (B. burgdorferi [1]; through the study (Day 166), 8 mg/kg sc Days 83 and 97) of the same compound?
A: five to seven

Q: And the “Bacterial culture of skin for spirochetes” value (B. burgdorferi [2]; post-treatment (Days 111 to 166), 8 mg/kg sc Days 83 and 97)?
A: all were negative on bacterial culture

Q: And the “Dogs culture-positive for spirochetes from skin” value (B. burgdorferi [2]; [6])?
A: 88%

Q: And the “Number of dogs culture-positive for spirochetes from skin” value (B. burgdorferi [2]; [6])?
A: Seven

Q: What about the “SNAP-4Dx Positives, Number of Dogs” value (B. burgdorferi [3]; Day 48 (pre-treatment; antibiotics from Day 75)) of the same compound?
A: 6

Q: And the “SNAP-4Dx Positives, Number of Dogs” value (B. burgdorferi [3]; Day 111)?
A: 5

Q: What about the “SNAP-4Dx Positives, Number of Dogs” value (B. burgdorferi [3]; Day 145) of the same compound?
A: 1

Q: And the “SNAP-4Dx Positives, Number of Dogs” value (B. burgdorferi [3]; Day 179)?
A: 2

Q: And the “SNAP-4Dx Positives, Number of Dogs” value (B. burgdorferi [3]; Day 221)?
A: 0

Q: What about the “SNAP-4Dx Positives, Number of Dogs” value (B. burgdorferi [3]; Day 251) of the same compound?
A: 0

Q: And the “SNAP-4Dx Positives, Number of Dogs” value (B. burgdorferi [3]; Day 281)?
A: 0

Q: And the “SNAP-4Dx Positives, Number of Dogs” value (B. burgdorferi [3]; Day 315)?
A: 0

Q: What about the “SNAP-4Dx Positives, Number of Dogs” value (B. burgdorferi [3]; Day −15 (pre-infection)) of the same compound?
A: 0

Q: And the SNAP-4Dx positive dogs (B. burgdorferi [3]; rest of the study after Day 179)?
A: none positive

Q: What about the “Multiplex Assay OspF: MFI Mean” value ([4]; Day 48 (pre-treatment)) of the same compound?
A: 922.75 MFI

Q: And the “Multiplex Assay OspF: No. Dogs > Positive Threshold (# dogs > 1500)” value ([4]; Day 48 (pre-treatment))?
A: 2

Q: And the “Multiplex Assay OspF: No. Dogs > Positive Threshold (# dogs > 1500)” value ([4]; Day 48 (pre-treatment), monosodium salt)?
A: two

Q: And the “Multiplex Assay OspF: MFI Mean” value ([4]; Day 111)?
A: 704.13 MFI

Q: And the “Multiplex Assay OspF: No. Dogs > Positive Threshold (# dogs > 1500)” value ([4]; Day 111)?
A: 0

Q: What about the “Multiplex Assay OspF: MFI Mean” value ([4]; Day 145) of the same compound?
A: 306.75 MFI

Q: What about the “Multiplex Assay OspF: No. Dogs > Positive Threshold (# dogs > 1500)” value ([4]; Day 145) of the same compound?
A: 0

Q: What about the “Multiplex Assay OspF: MFI Mean” value ([4]; Day 179) of the same compound?
A: 270.00 MFI

Q: And the “Multiplex Assay OspF: No. Dogs > Positive Threshold (# dogs > 1500)” value ([4]; Day 179)?
A: 0

Q: And the “Multiplex Assay OspF: MFI Mean” value ([4]; Day 221)?
A: 227.13 MFI

Q: What about the “Multiplex Assay OspF: No. Dogs > Positive Threshold (# dogs > 1500)” value ([4]; Day 221) of the same compound?
A: 0

Q: What about the “Multiplex Assay OspF: MFI Mean” value ([4]; Day 251) of the same compound?
A: 221.88 MFI

Q: What about the “Multiplex Assay OspF: No. Dogs > Positive Threshold (# dogs > 1500)” value ([4]; Day 251) of the same compound?
A: 0

Q: What about the “Multiplex Assay OspF: MFI Mean” value ([4]; Day 281) of the same compound?
A: 225.63 MFI

Q: And the “Multiplex Assay OspF: No. Dogs > Positive Threshold (# dogs > 1500)” value ([4]; Day 281)?
A: 0

Q: And the “Multiplex Assay OspF: MFI Mean” value ([4]; Day 314)?
A: 239.88 MFI

Q: And the “Multiplex Assay OspF: No. Dogs > Positive Threshold (# dogs > 1500)” value ([4]; Day 314)?
A: 0

Q: And the “Multiplex Assay OspF: MFI Mean” value ([4]; Day −15 (pre-infection))?
A: 101.50 MFI

Q: What about the “Multiplex Assay OspF: No. Dogs > Positive Threshold (# dogs > 1500)” value ([4]; Day −15 (pre-infection)) of the same compound?
A: 0

Q: And the “Antibody-OspF status of dogs” value ([4]; after Day 48)?
A: all dogs negative thereafter

Q: What about the Absorption [5] of the same compound?
A: rapidly and completely absorbed
